Source: patent US10399985B2, “(Hetero)aryl imidazoles/pyrazoles for treatment of neurological disorders” (Hoffmann-La Roche Inc., priority 2014, dated 2019)

What was measured:
rats = conditions: sub-chronic treatment with PCP; cited from earlier work
human PDE10A = human PDE10A (Homo sapiens (Human), UniProt Q9Y233); assay: human PDE10A full length Scintillation Proximity Assay (SPA); format: biochemical; conditions: 50 nM cGMP and 50 nM [3H]-cGMP, 20 minutes at room temperature
Experimental: The following test was carried out in order to determine the activity of the compounds of the present invention. PDE10 activity of the compounds of the present invention was determined using a Scintillation Proximity Assay (SPA)-based method similar to the one previously described (Fawcett, L. et al., ProcNatl Acad Sci USA (2000) 97(7):3702-3707).
The human PDE10A full length assay was performed in 96-well micro titer plates. The reaction mixture of 50 μl contained 20 mM HEPES pH=7.5/10 mM MgCl2/0.05 mg/ml BSA (Sigma cat. # A-7906), 50 nM cGMP (Sigma, cat. # G6129) and 50 nM [3H]-cGMP (GE Healthcare, cat. # TRK392 S. A. 13.2 Ci/mmol), 3.75 ng/well PDE10A enzyme (Enzo Life Science, Lausen, Switzerland cat # SE-534) with or without a specific test compound. A range of concentrations of the potential inhibitor was used to generate data for calculating the concentration of inhibitor resulting in 50% of the effect (e.g. IC50, the concentration of the competitor inhibiting PDE10A activity by 50%). Non-specific activity was tested without the enzyme. The reaction was initiated by the addition of the substrate solution (cGMP and [3H]-cGMP) and allowed to progress for 20 minutes at room temperature. The reaction was terminated by adding 25 μl of YSi-SPA scintillation beads (GE Healthcare, cat. # RPNQ0150) in 18 mM zinc sulphate solution (stop reagent). After 1 h under shaking, the plate was centrifuged one minute at 170 g to allow beads to settle. Afterwards, radioactive counts were measured on a Perkin Elmer TopCount Scintillation plate reader.

Sequence of human PDE10A (Q9Y233 other isoform, or with tags, fused parts or gaps): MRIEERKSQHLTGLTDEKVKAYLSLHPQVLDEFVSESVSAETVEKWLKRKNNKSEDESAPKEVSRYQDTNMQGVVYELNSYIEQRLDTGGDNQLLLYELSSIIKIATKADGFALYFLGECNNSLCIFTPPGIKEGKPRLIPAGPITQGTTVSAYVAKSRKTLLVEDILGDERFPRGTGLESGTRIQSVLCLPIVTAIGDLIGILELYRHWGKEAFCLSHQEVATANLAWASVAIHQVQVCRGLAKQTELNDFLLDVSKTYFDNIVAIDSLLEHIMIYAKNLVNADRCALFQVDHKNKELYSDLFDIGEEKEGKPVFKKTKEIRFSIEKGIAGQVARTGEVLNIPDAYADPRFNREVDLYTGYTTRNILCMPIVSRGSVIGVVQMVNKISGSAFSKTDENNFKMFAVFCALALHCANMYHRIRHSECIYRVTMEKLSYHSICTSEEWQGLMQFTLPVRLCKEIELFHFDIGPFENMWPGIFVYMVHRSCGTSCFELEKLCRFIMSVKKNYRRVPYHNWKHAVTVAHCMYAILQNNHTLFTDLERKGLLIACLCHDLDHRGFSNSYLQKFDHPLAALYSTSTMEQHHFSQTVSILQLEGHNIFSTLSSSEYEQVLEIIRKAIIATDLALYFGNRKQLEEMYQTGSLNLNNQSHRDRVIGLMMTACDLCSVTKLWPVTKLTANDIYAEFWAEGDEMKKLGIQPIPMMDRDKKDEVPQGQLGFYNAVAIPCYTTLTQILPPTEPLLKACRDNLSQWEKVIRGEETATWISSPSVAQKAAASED

Structure (SMILES)	IC50 (human PDE10A) [nM]	deficits in the extra-dimensional shift learning (rats)
COc1ccc(Cc2nccc3cc(OC)c(OC)cc23)cc1OC [papaverine, Papaverine]	–	attenuate the deficits
CNC(=O)c1cc(CCc2nc(-c3ccccn3)cn2C)nn2c(C)c(C(F)(F)F)nc12 [Example 31, N,3-Dimethyl-6-(2-(1-methyl-4-(pyridin-2-yl)-1H-imidazol-2-yl)ethyl)-2-(trifluoromethyl)imidazo[1,2-b]pyridazine-8-carboxamide]	8	–
Cc1nc2c(C)c(C)c(CCc3nc(-c4ccccc4)cn3C)nn2c1C [Example 14, 2,3,7,8-Tetramethyl-6-(2-(1-methyl-4-phenyl-1H-imidazol-2-yl)ethyl)imidazo[1,2-b]pyridazine]	10.8	–

Second part, led by results:

IC50 (human PDE10A) [nM]	Structure (SMILES)	deficits in the extra-dimensional shift learning (rats)
47	Cn1cc(-c2ccccc2)nc1COc1ccc2nc3c(n2n1)CCC3 [Example 44, 2-[(1-Methyl-4-phenyl-imidazol-2-yl)methoxy]-7,8-dihydro-6H-cyclopenta[1,2]imidazo[3,4-c]pyridazine]	–
5.4	Cc1c(C#N)nc2ccc(CCc3nc(-c4ccccc4)cn3C)nn12 [Example 22, 3-Methyl-6-[2-(1-methyl-4-phenyl-1H-imidazol-2-yl)-ethyl]-imidazo[1,2-b]pyridazine-2-carbonitrile]	–
82.8	Cn1cc(-c2ccccc2)nc1CCc1ccc2nc(C(F)(F)F)cn2n1 [Example 20, 6-(2-(1-Methyl-4-phenyl-1H-imidazol-2-yl)ethyl)-2-(trifluoromethyl)imidazo[1,2-b]pyridazine]	–
